Measured values: the RepoRT retention time repository (doi:10.1021/acs.analchem.1c00972)

How the values were obtained:
[1] = RP, Waters ACQUITY UPLC BEH C18, 100 × 1 mm, 1.7 µm, 50 °C, 0.3 mL/min, estimated dead time 0.17 min; A: water + 10 mM ammonium bicarbonate; B: 10% water + 90% methanol + 10 mM ammonium bicarbonate; gradient (min/%B) 0/0 15/100 21/100 22/0 30/0; conditions: stereoisomer not certain
[2] = RP, Waters ACQUITY UPLC BEH C18, 100 × 1 mm, 1.7 µm, 50 °C, 0.3 mL/min, estimated dead time 0.17 min; A: water + 0.1% formic acid + 20 mM ammonium formate; B: methanol + 0.1% formic acid + 20 mM ammonium formate; gradient (min/%B) 0/0 15/100 21/100 22/0 30/0; conditions: stereoisomer not certain

| SMILES | LC retention time [1] [min] | LC retention time [2] [min] |
| --- | --- | --- |
| OC(Cc1ccccc1Cl)(Cn1cncn1)C1(Cl)CC1 (stereo not given) [Prothioconazole-desthio] | 15.3 | 15 |
| CN1CCc2cc3c(cc2C(=O)Cc2ccc4c(c2C1)OCO4)OCO3 [Protopin] | 13.6 | 9.28 |
| CCOP(=S)(OCC)Oc1ccc(=O)n(-c2ccccc2)n1 [Pyridaphenthion] | 14.8 | 14.6 |
| CC=C1CC(C)C(O)(CO)C(=O)OCC2=CC[N+]3([O-])CCC(OC1=O)C23 (stereo not given) [Retrorsine N-oxide] | 8.61 | 7.74 |
| CC=C1CC(C)C(O)(CO)C(=O)OCC2=CCN3CCC(OC1=O)C23 (stereo not given) [Retrorsine] | 11.6 | 7.62 |
| COC1C=COC2(C)Oc3c(C)c(O)c4c(O)c(c5c(nc6cc(C)ccn65)c4c3C2=O)NC(=O)C(C)=CC=CC(C)C(O)C(C)C(O)C(C)C(OC(C)=O)C1C (stereo not given) [Rifaximin] | 14.6 | 14.7 |
| Cc1nc2n(c(=O)c1CCN1CCC(c3noc4cc(F)ccc34)CC1)CCCC2 [Risperidone] | 14.7 | 10.5 |
| CC(C)c1nc(CN(C)C(=O)NC(C(=O)NC(Cc2ccccc2)CC(O)C(Cc2ccccc2)NC(=O)OCc2cncs2)C(C)C)cs1 (stereo not given) [Ritonavir] | 16.3 | 15.9 |
| CCCN(CCC)CCc1cccc2c1CC(=O)N2 [Ropinirole] | 15.2 | 8.08 |
| CCC1OC(=O)C(C)C(OC2CC(C)(OC)C(O)C(C)O2)C(C)C(OC2OC(C)CC(N(C)C)C2O)C(C)(O)CC(C)C(=NOCOCCOC)C(C)C(O)C1(C)O (stereo not given) [Roxithromycin] | 16.9 | 14.3 |
| O=C(O)c1ccccc1O [Salicylic acid] | 4.78 | 9.72 |
| CCNc1nc(NC(C)CC)[nH]c(=O)n1 (stereo not given) [Sebuthylazine-2-hydroxy] | 12 | 9.91 |
| CC=C1CC(C)C(C)(O)C(=O)OCC2=CC[N+]3([O-])CCC(OC1=O)C23 (stereo not given) [Senecionine N-oxide] | 9.78 | 8.82 |
| CC=C1CC(C)C(C)(O)C(=O)OCC2=CCN3CCC(OC1=O)C23 (stereo not given) [Senecionine] | 12.5 | 8.65 |
| C=C1CC(=CC)C(=O)OC2CC[N+]3([O-])CC=C(COC(=O)C1(C)O)C23 (stereo not given) [Seneciphylline N-oxide] | 8.91 | 8.11 |
| C=C1CC(=CC)C(=O)OC2CCN3CC=C(COC(=O)C1(C)O)C23 (stereo not given) [Seneciphylline] | 11.8 | 7.89 |
| C=C1C(=O)OC2CC[N+]3([O-])CC=C(COC(=O)C(C)(O)C(C)C1C)C23 (stereo not given) [Senecivernine N-oxide] | 9.7 | 8.69 |
| C=C1C(=O)OC2CCN3CC=C(COC(=O)C(C)(O)C(C)C1C)C23 (stereo not given) [Senecivernine] | 12.7 | 8.55 |
| CC=C1CC(C)C(C)(O)C(=O)OCC2=CCN(C)CCC(OC1=O)C2=O (stereo not given) [Senkirkine] | 10.2 | 9.47 |
| CCNc1nc(NCC)[nH]c(=O)n1 [Simazine 2-Hydroxy] | 9.04 | 7.39 |
| CC1CCC2(NC1)OC1CC3C4CC=C5CC(O)CCC5(C)C4CCC3(C)C1C2C (stereo not given) [Solasodin] | 18 | 14.3 |
| O=C1C=CCC2C3CCCN4CCCC(CN12)C34 (stereo not given) [Sophocarpine] | 12.8 | 5.39 |

| SMILES | LC retention time [1] [min] | LC retention time [2] [min] |
| --- | --- | --- |
| CCOC1C(OC)C(C)OC(OC2CC3CCC4C5CC(=O)OC(CC)CCCC(OC6CCC(N(C)C)C(C)O6)C(C)C(=O)C5=CC4C3C2)C1OC (stereo not given) [Spinetoram] | 19.2 | 16.2 |
| CCC(C)(C)C(=O)OC1=C(c2ccc(Cl)cc2Cl)C(=O)OC12CCCCC2 [Spirodiclofen] | 18 | 17.6 |
| Cc1cc(C)c(C2=C(OC(=O)CC(C)(C)C)C3(CCCC3)OC2=O)c(C)c1 [Spiromesifen] | 17.7 | 17.3 |
| COc1cc2c(c3oc4cccc(O)c4c(=O)c13)C1C=COC1O2 (stereo not given) [Sterigmatocystin] | 15 | 14.6 |
| CC12CCC3C(CCC4(O)CC(O)CCC34C=O)C1(O)CCC2C1=CC(=O)OC1 (stereo not given) [Strophanthidin] | 11.3 | 11 |
| Nc1ccc(S(=O)(=O)Nc2ncccn2)cc1 [Sulfadiazin] | 2.61 | 6 |
| COc1ncnc(NS(=O)(=O)c2ccc(N)cc2)c1OC [Sulfadoxine] | 6.19 | 8.86 |
| Cc1ccnc(NS(=O)(=O)c2ccc(N)cc2)n1 [Sulfamerazine] | 5.61 | 7.14 |
| CC[N+]1([O-])CCCC1CNC(=O)c1cc(S(N)(=O)=O)ccc1OC (stereo not given) [Sulpiride N-Oxide] | 6.84 | 6.62 |
| CCC(=C(c1ccccc1)c1ccc(OCCN(C)C)cc1)c1ccccc1 [Tamoxifen] | 18.4 | 15.8 |
| CNC(=O)N(C)c1nnc(C(C)(C)C)s1 [Tebuthiuron] | 12.1 | 11.9 |
| CCCc1nc2c(C)cc(-c3nc4ccccc4n3C)cc2n1Cc1ccc(-c2ccccc2C(=O)O)cc1 [Telmisartan] | 14.6 | 14.2 |
| CS(=O)(=O)c1ccc(C(=O)C2C(=O)CCCC2=O)c(Cl)c1COCC(F)(F)F [Tembotrione] | 15.6 | 13.4 |
| COP(=S)(OC)Oc1ccc(Sc2ccc(OP(=S)(OC)OC)cc2)cc1 [Temephos] | 17.2 | 16.8 |
| Cc1[nH]c(=O)n(C(C)(C)C)c(=O)c1Cl [Terbacil] | 12 | 11.8 |
| CN(CC=CC#CC(C)(C)C)Cc1cccc2ccccc12 [Terbinafine] | 18.7 | 14 |
| CCCCNc1ccc(C(=O)OCCN(C)C)cc1 [Tetracain] | 15.2 | 11.4 |
| CCCCOCCOCCOCCOCCO [Tetraethyleneglycol monobutyl ether] | 12 | 11.7 |
| COCCOCCOCCOCCOC [Tetraglyme] | 9.08 | 9.01 |
| COc1cc2c(cc1OC)C1Cc3ccc(OC)c(OC)c3CN1CC2 (stereo not given) [Tetrahydropalmatin] | 14.8 | 9.6 |
| O=C1NC(=O)C2CC=CCC12 (stereo not given) [Tetrahydrophthalimide] | 5.35 | 5.38 |
| CN(C)C(=S)SC(=S)N(C)C [Tetramethylthiuram monosulfide] | 9.63 | 9.49 |

| SMILES | LC retention time [1] [min] | LC retention time [2] [min] |
| --- | --- | --- |
| CN1C(=O)CN=C(C2=CCCCC2)c2cc(Cl)ccc21 [Tetrazepam] | 15.7 | 15 |
| Cn1cnc2c1c(=O)[nH]c(=O)n2C [Theobromine] | 5.86 | 5.9 |
| CCN(CC)C(=O)SCc1ccc(Cl)cc1 [Thiobencarb] | 16.4 | 16 |
| CCN(CC)CCNC(=O)c1cc(S(C)(=O)=O)ccc1OC [Tiapride] | 10.8 | 6.49 |
| CC(C)(C)NCC(O)COc1nsnc1N1CCOCC1 (stereo not given) [Timolol] | 13.2 | 9.08 |
| Cc1c(Cl)cccc1Nc1ccccc1C(=O)O [Tolfenamics<e4>ure] | 14.4 | 16.7 |
| Cc1cccc(N(C)C(=S)Oc2ccc3ccccc3c2)c1 [Tolnaftate] | 17 | 16.6 |
| Cc1cccc2n[nH]nc12 [Tolyltriazole] | 14.6 | 9.9 |
| Cc1cccc(Nc2ccncc2S(=O)(=O)NC(=O)NC(C)C)c1 [Torasemide] | 12.4 | 11.6 |
| CC(=O)c1cc2c(cc1C)C(C)(C)C(C)C2C(C)C (stereo not given) [Traseolide] | 18.2 | 17.8 |
| CC12C=CC3=C4CCC(=O)C=C4CCC3C1CCC2O (stereo not given) [Trenbolone] | 13.6 | 13.4 |
| CC(=O)OCC(COC(C)=O)OC(C)=O [Triacetin] | 9.54 | 9.42 |
| CC(C)N(C(=O)SCC(Cl)=C(Cl)Cl)C(C)C [Triallate] | 17.7 | 17.3 |
| CC12C=CC(=O)C=C1CCC1C3CC(O)C(O)(C(=O)CO)C3(C)CC(O)C12F (stereo not given) [Triamcinolone] | 10.1 | 10 |
| COc1nc(C)nc(NC(=O)NS(=O)(=O)c2ccccc2OCCCl)n1 [Triasulfuron] | 9.67 | 11.5 |
| COC(=O)c1ccccc1S(=O)(=O)NC(=O)N(C)c1nc(C)nc(OC)n1 [Tribenuron-methyl] | 9.4 | 12.8 |
| Cc1ccc(OP(=O)(Oc2ccc(C)cc2)Oc2ccc(C)cc2)cc1 [Tricresylphosphate] | 17.7 | 17.3 |
| Cc1cccc2sc3nncn3c12 [Tricyclazole] | 10.4 | 10.3 |
| CCOC(=O)CC(O)(CC(=O)OCC)C(=O)OCC [Triethylcitrate] | 12.1 | 11.9 |
| CC(CN(C)C)CN1c2ccccc2CCc2ccccc21 (stereo not given) [Trimipramine] | 17.8 | 12.9 |
| CCCN(CCC)CCC [Tripropylamine] | 12.5 | 6.53 |
